Experimental findings from ChEMBL document CHEMBL2169878 (J Med Chem, 2012) are described below.

The subject of data set [1] is Plasmodium falciparum. Description: Antiplasmodial activity against chloroquine-sensitive Plasmodium falciparum NF54 infected in human erythrocytes assessed as inhibition of [3H]hypoxanthine incorporation incubated for 48 hrs prior to [3H]hypoxanthine addition measured after 48 hrs by liquid scintillation counting. Type of data set: functional, organism-based.
The subject of data set [2] is Salmonella typhimurium. Description: Mutagenicity against Salmonella typhimurium TA98 assessed as revertants at 13 uM incubated for 90 mins followed by drug washout measured after 2 days relative to positive control. The data set is classed as toxicity, organism-based. As to conditions: salmonella enterica subsp. enterica serovar typhimurium, 1.5 h.
Data set [3] deals with Salmonella typhimurium. In words: Mutagenicity against Salmonella typhimurium TA100 assessed as revertants at 50 uM incubated for 90 mins followed by drug washout measured after 2 days relative to positive control. The data set is classed as toxicity, organism-based. As to conditions: salmonella enterica subsp. enterica serovar typhimurium.
The subject of data set [4] is Salmonella typhimurium. Description: Mutagenicity against Salmonella typhimurium TA100 assessed as revertants at 25 uM incubated for 90 mins followed by drug washout measured after 2 days relative to positive control. The data set is classed as toxicity, organism-based. As to conditions: salmonella enterica subsp. enterica serovar typhimurium.
Data set [5] concerns Salmonella typhimurium. Description: Mutagenicity against Salmonella typhimurium TA98 assessed as revertants at 25 uM incubated for 90 mins followed by drug washout measured after 2 days relative to positive control. The data set is classed as toxicity, organism-based. As to conditions: salmonella enterica subsp. enterica serovar typhimurium.
Data set [6] deals with Salmonella typhimurium. Description: Mutagenicity against Salmonella typhimurium TA98 assessed as revertants at 6 uM incubated for 90 mins followed by drug washout measured after 2 days relative to positive control. Type of data set: toxicity, organism-based. As to conditions: salmonella enterica subsp. enterica serovar typhimurium, 1.5 h.
The subject of data set [7] is Plasmodium falciparum. Description: Antiplasmodial activity against chloroquine-sensitive Plasmodium falciparum D10 infected in human RBC after 72 hrs by parasite lactate dehydrogenase assay. As to conditions: D10, 72 h. The data set is classed as functional, organism-based.
In data set [8] the test system is Salmonella typhimurium. Description: Mutagenicity against Salmonella typhimurium TA100 assessed as revertants at 3 uM incubated for 90 mins followed by drug washout measured after 2 days relative to positive control. The data set is classed as toxicity, organism-based. As to conditions: salmonella enterica subsp. enterica serovar typhimurium, 1.5 h.
For data set [9], the system named is Salmonella typhimurium. Description: Mutagenicity against Salmonella typhimurium TA100 assessed as revertants at 6 uM incubated for 90 mins followed by drug washout measured after 2 days relative to positive control. The data set is classed as toxicity, organism-based. As to conditions: salmonella enterica subsp. enterica serovar typhimurium, 1.5 h.
The test system of data set [10] is Plasmodium falciparum. In words: Antiplasmodial activity against chloroquine-resistant Plasmodium falciparum W2 infected in human RBC after 72 hrs by parasite lactate dehydrogenase assay. The data set is classed as functional, organism-based. As to conditions: W2, 72 h.
Data set [11] relates to Plasmodium falciparum. In words: Antiplasmodial activity against chloroquine-resistant Plasmodium falciparum K1 infected in human erythrocytes assessed as inhibition of [3H]hypoxanthine incorporation incubated for 48 hrs prior to [3H]hypoxanthine addition measured after 48 hrs by liquid scintillation counting. The data set is classed as functional, organism-based.
Data set [12] concerns the target T1, Chloroquine resistance transporter (Plasmodium falciparum) (UniProt Q9N623).
T1 sequence (whole entry): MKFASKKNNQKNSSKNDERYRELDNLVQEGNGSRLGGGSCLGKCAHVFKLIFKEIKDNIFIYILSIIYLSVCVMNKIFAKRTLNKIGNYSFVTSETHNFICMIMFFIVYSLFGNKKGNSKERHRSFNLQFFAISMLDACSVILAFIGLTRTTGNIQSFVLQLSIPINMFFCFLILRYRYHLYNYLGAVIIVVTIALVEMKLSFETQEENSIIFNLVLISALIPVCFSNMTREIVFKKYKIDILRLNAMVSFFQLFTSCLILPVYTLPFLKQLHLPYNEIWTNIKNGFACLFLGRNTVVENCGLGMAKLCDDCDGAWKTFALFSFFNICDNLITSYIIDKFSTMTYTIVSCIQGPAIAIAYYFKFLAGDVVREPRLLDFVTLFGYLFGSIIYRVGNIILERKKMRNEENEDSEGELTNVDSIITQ
Description: Inhibition of chloroquine-resistant Plasmodium falciparum Dd2 CRT expressed in Xenopus laevis oocyte assessed as inhibition of [3H]chloroquine uptake at 100 uM measured from 1 to 2 hrs.

The test system of data set [13] is Salmonella typhimurium. In words: Mutagenicity against Salmonella typhimurium TA100 assessed as revertants at 1.5 uM incubated for 90 mins followed by drug washout measured after 2 days relative to positive control. Type of data set: toxicity, organism-based. As to conditions: salmonella enterica subsp. enterica serovar typhimurium, 1.5 h.
The subject of data set [14] is Salmonella typhimurium. In words: Mutagenicity against Salmonella typhimurium TA98 assessed as revertants at 50 uM incubated for 90 mins followed by drug washout measured after 2 days relative to positive control. Type of data set: toxicity, organism-based. As to conditions: salmonella enterica subsp. enterica serovar typhimurium, 1.5 h.
The nature of data set [15]: Cytotoxicity against mouse NIH3T3 cells after 24 hrs by neutral red dye uptake assay. Type of data set: cell-based. As to conditions: read-out: TC50.
Data set [16] deals with Salmonella typhimurium. In words: Mutagenicity against Salmonella typhimurium TA98 assessed as revertants at 3 uM incubated for 90 mins followed by drug washout measured after 2 days relative to positive control. As to conditions: salmonella enterica subsp. enterica serovar typhimurium, 1.5 h. Type of data set: toxicity, organism-based.
Data set [17] in a line: Cytotoxicity against human HepG2 cells after 24 hrs by neutral red dye uptake assay. The data set is classed as cell-based. As to conditions: read-out: TC50.
For data set [18], the system named is Salmonella typhimurium. Description: Mutagenicity against Salmonella typhimurium TA98 assessed as revertants at 1.5 uM incubated for 90 mins followed by drug washout measured after 2 days relative to positive control. Type of data set: toxicity, organism-based. As to conditions: salmonella enterica subsp. enterica serovar typhimurium, 1.5 h.
The test system of data set [19] is Salmonella typhimurium. Description: Mutagenicity against Salmonella typhimurium TA100 assessed as revertants at 13 uM incubated for 90 mins followed by drug washout measured after 2 days relative to positive control. Type of data set: toxicity, organism-based. As to conditions: salmonella enterica subsp. enterica serovar typhimurium.

As for `Fc1cc(C(Nc2ccnc3cc(Cl)ccc23)c2ccc(Cl)cc2)ccc1CN1CCCC1` (racemic), the IC50 in the data set on Plasmodium falciparum [1] came out at 13 nM; with Plasmodium falciparum [7] it was 59 nM; in the data set on Plasmodium falciparum [10], 45 nM; in the data set on Plasmodium falciparum [11], 20 nM. The Activity with Salmonella typhimurium [2] was 3%; in the data set on Salmonella typhimurium [3], 11%; in the data set with Salmonella typhimurium [4], 11%; with Salmonella typhimurium [5] it was 11%; in the data set with Salmonella typhimurium [6], 3%; with Salmonella typhimurium [8], 10%. Besides, the Activity stood at 10% in the data set on Salmonella typhimurium [9]; 12% in the data set on Salmonella typhimurium [13]; 8% in the data set on Salmonella typhimurium [14]; 5% in the data set on Salmonella typhimurium [16]; 4% in the data set with Salmonella typhimurium [18]; 11% in the data set with Salmonella typhimurium [19]. For the same molecule, the inhibition in data set [12] turned out to be 70%. Also, the values for the CC50 at 24 h in [15] and in [17] were 25000 nM and 12000 nM, respectively.

As a reminder, the IC50 is the midpoint of a concentration-inhibition curve. The inhibition is the percentage by which the read-out fell short of the control.
